Experimental data as given in US10184115B2, “Mutated cellobiose dehydrogenase with increased substrate specificity” (DIRECTSENS GMBH, priority 2012, dated 2019).

Molecular target: T1, Myriococcum thermophilum cellobiose dehydrogenase (CDH, SEQ ID NO: 1) variant W316R (Thermothelomyces myriococcoides, UniProt A9XK88, W316R)
T1 sequence (A9XK88 22-828 W316R): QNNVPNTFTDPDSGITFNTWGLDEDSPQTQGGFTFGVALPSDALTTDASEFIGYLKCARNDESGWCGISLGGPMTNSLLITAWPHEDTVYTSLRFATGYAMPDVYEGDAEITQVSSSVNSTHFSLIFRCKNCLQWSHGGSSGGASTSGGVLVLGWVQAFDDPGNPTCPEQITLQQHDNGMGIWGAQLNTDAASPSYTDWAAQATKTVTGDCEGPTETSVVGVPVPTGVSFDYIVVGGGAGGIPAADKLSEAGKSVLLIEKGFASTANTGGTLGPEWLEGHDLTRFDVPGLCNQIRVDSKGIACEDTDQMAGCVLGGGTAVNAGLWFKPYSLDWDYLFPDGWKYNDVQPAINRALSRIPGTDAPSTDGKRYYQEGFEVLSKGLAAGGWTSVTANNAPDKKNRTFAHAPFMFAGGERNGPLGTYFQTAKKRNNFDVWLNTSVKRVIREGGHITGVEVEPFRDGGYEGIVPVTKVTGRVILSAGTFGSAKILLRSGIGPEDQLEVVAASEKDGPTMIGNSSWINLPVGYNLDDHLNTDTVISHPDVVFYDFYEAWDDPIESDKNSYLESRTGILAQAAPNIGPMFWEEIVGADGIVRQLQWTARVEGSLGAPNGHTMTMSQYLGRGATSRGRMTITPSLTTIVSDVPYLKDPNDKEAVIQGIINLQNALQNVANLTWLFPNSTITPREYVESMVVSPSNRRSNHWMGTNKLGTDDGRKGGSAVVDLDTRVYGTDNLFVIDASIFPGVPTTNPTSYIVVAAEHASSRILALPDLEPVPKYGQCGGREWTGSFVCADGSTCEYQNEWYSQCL
Experiment: Steady-state kinetics, DCIP assay: M. thermophilum CDH W316R
Assay type: biochemical
Settings: apparent, pH 4.5, 30° C.
Procedure: Enzyme activity was assayed at 30° C. using either the DCIP (Karapetyan et al., 2005 Journal of Biotechnology 121: 34-48) or cytochrome c (Canevascini et al., 1991, European Journal of Biochemistry 198: 43-52) as electron acceptor. […] Stock solutions of carbohydrates used for kinetic measurements were prepared in the respective buffer and allowed to stand overnight for mutarotation, while stock solutions of electron acceptors were prepared in water and immediately used. The reaction stoichiometry is 1 for the two-electron acceptor DCIP (1 mole of DCIP reduced per mole of carbohydrate oxidized), but 2 for the one-electron acceptor cytochrome c. Kinetic constants were calculated by fitting the observed data to the Henri-Michaelis-Menten equation or to the adapted model for substrate inhibition using nonlinear least-squares regression and the program SigmaPlot (Systat Software, San Jose, Calif., USA). […]
Recombinant wild-type CDH as well as variants were produced in 1 L baffled flasks. […] Increase in activity was monitored using the DCIP and the cytochrome c enzyme assays. […]
The sample was loaded on a 20 mL PHE Sepharose FF column (HR26/20) equilibrated with 50 mM Na-acetate buffer pH 5.5 containing 20% ammonium sulfate. […] Fractions were tested for CDH activity and pooled according to the highest Reinheitszahl (RZ, calculated from the absorbance ratio 420 nm/280 nm). […]

OC[C@H]1O[C@H](O[C@H]2[C@H](O)[C@@H](O)C(O)O[C@@H]2CO)[C@H](O)[C@@H](O)[C@@H]1O (some centres unmarked) [Maltose, maltose]
kcat/KM: 0.09 M⁻¹ s⁻¹ | kcat (~ values only estimated by non linear regression): 0.12 s⁻¹
